Target: T1, human PDHK2 (hPDHK2) (Homo sapiens, UniProt Q15119)
T1 construct: made in house; host or cells: Escherichia coli BL21(DE3), pET-17b vector
Assay: Inhibitory action of PDHK2 activity (residual PDH activity, NADH absorbance at 340 nm)
Format: biochemical
Conditions: PDH/hPDHK2 complex, PDHK reaction 45 min at room temperature
Protocol: In the case of human PDHK2 (hPDHK2, NCBI Reference Database Accession number NM_002611.4), modified hPDHK2 cDNA wherein FLAG-Tag sequence was added to the N terminus of hPDHK2 cDNA clone (pReceiver-M01/PDK2-GeneCopoeia) as the base was prepared by polymerase chain reaction (PCR) and ligated to the NdeI/EcoRI site of pET-17b vector (Merck KGaA, Catalog Number 69663-3). The recombinant construct was transformed into Escherichia coli DH5α. The recombinant clones were identified, and plasmid DNA was isolated and subjected to the DNA sequence analysis. One clone which had the expected nucleic acid sequence was selected for expression work.
For expression of hPDHK2 activity, Escherichia coli strain BL21(DE3) cells (Merck KGaA, Catalog Number 69450-4) were transformed with the pET17b vector containing modified hPDHK2 cDNA. The Escherichia coli were grown to an optical density 0.6 ([…]) at 30° C. Protein expression was induced by the addition of 500 μmol/L isopropyl-β-thiogalactopyranoside. The Escherichia coli were cultured at 20° C. for 17-18 hr and harvested by centrifugation. The harvested Escherichia coli was resuspended in a suspension buffer (20 mmol/L HEPES-NaOH, 500 mmol/L sodium chloride, 1% ethylene glycol, 0.1% Pluronic (registered trademark) F-68 (pH 8.0), cOmplete, EDTA-free (Roche) (pH 8.0)), and disrupted by a microfluidizer M-110H (MIZUHO INDUSTRIAL CO., LTD.). The precipitate was removed by centrifugation and the supernatant was added to DDDDK-tagged Protein PURIFICATION GEL (MEDICAL & BIOLOGICAL LABORATORIES CO., LTD., Code No. 3329). DDDDK-tagged Protein PURIFICATION GEL was washed with a washing buffer (20 mmol/L HEPES-NaOH, 500 mmol/L sodium chloride, 1% ethylene glycol, 0.1% Pluronic F-68 (pH 8.0)) and the bound protein was eluted with elution buffer 1 (20 mmol/L HEPES-NaOH, 100 μg/mL peptide (amino acid sequence DYKDDDDK) (SEQ ID NO: 1), 500 mmol/L sodium chloride, 1% ethylene glycol, 0.1% Pluronic F-68 (pH 8.0)). The eluted fractions containing FLAG-Tagged protein were pooled, concentrated by an ultrafiltration method, added to a gel filtration column (HiLoad 26/60 Superdex 200 (GE Healthcare Life Sciences, Code No. 17-1070-01)), and eluted with elution buffer 2 (20 mmol/L HEPES-NaOH, 150 mmol/L sodium chloride, 0.5 mmol/L ethylenediaminetetraacetic acid (EDTA), 1% ethylene glycol, 0.1% Pluronic F-68 (pH 8.0)). The eluted fractions were pooled and preserved at −80° C.
PDH (porcine heart PDH complex, Sigma P7032) and 0.5 μg/mL hPDHK2 were mixed in an assay buffer (50 mmol/L 3-morpholinopropanesulfonic acid (pH 7.0), 20 mmol/L dipotassium hydrogen phosphate, 60 mmol/L potassium chloride, 2 mmol/L magnesium chloride, 0.4 mmol/L EDTA, 0.2% poloxamer, 2 mmol/L dithiothreitol) so that the final concentration of PDH was 0.025 U/mL, and the mixture was incubated at 4° C. overnight to obtain a PDH/hPDHK2 complex solution.
PDH was mixed with the assay buffer so that the final concentration was 0.025 U/mL, and the mixture was incubated at 4° C. overnight to prepare a PDH solution.
The test compounds were diluted with DMSO. To measure an inhibitory action of the test compound on the PDHK activity in the PDH/hPDHK2 complex solution, PDH/hPDHK2 complex solution (20 μL), test compound (1.5 μL) and 1.06 μmol/L ATP (diluted with assay buffer) (8.5 μL) were added to a 384 well microplate (Greiner Bio-One 781801) and PDHK reaction was performed at room temperature for 45 min (test compound well). DMSO (1.5 μL) was added to control wells instead of test compound. In addition, DMSO (1.5 μL) was added to blank wells instead of the test compound, and PDH solution was added instead of the PDH/hPDHK2 complex solution. To measure an inhibitory action of the test compound on the PDHK activity inherent in the PDH solution, a test compound was added and the PDH solution instead of the PDH/hPDHK2 complex solution was added to a blank+test compound well. […]

Row | SMILES | IC50 [nM]
1 | C[C@H]1Cn2c(nnc2C2CC2c2ccccc2)-c2cnc([C@@](C)(O)C(F)(F)F)n21 (stereo partly shown) [Example 97] | 6.2
2 | C[C@H]1Cn2c(-c3ccc(F)c(OC(C)(C)C)c3)nnc2-c2cnc([C@@](C)(O)C(F)(F)F)n21 [Example 98] | 12
3 | C[C@H]1Cn2c(nnc2C2(F)CC2)-c2cnc([C@@](C)(O)C(F)(F)F)n21 [Example 99] | 8.5
4 | C[C@H]1Cn2c(nnc2C(C)(C(F)(F)F)C(F)(F)F)-c2cnc([C@@](C)(O)C(F)(F)F)n21 [Example 100] | 9.5

Results, then the molecule that gave them:

Row | IC50 [nM] | SMILES
5 | 14 | C[C@H]1Cn2nc(O[C@@H]3CCOC3)cc2-c2cnc([C@@](C)(O)C(F)(F)F)n21 [Example 101]
6 | 16 | C[C@H]1Cn2nc(O[C@H]3CCOC3)cc2-c2cnc([C@@](C)(O)C(F)(F)F)n21 [Example 102]
7 | 26 | C[C@H]1Cn2c(cc(=O)n2C(F)F)-c2cnc([C@@](C)(O)C(F)(F)F)n21 [Example 103]

Source: patent publication US20230025880A1, “FUSED TRICYCLIC COMPOUND AND MEDICINAL USE THEREOF” (JAPAN TOBACCO INC., priority 2020, published 2023)
